Data: ChEMBL document CHEMBL1177693, “Antimalarials from nature” (Bioorg Med Chem, 2009)
≈ marks a conversion by molar mass, not a printed value.

test system: Plasmodium falciparum; assay: Antimalarial activity against Plasmodium falciparum; assay type: functional, organism-based; conditions: not given

Row | Compound | fold change (FC)
1 | C=C(COCc1ccc(Br)cc1)[C@@H]1CC[C@]2(C)CC[C@]3(C)[C@H](CC[C@@H]4[C@@]5(C)CC[C@H](OC(=O)CCCCCCC(N)=O)C(C)(C)[C@@H]5CC[C@]43C)[C@@H]12 | 7

same assay, conditions: Plasmodium falciparum

Row | Compound | IC50 | EC50
2 | C=C1[C@@H](O)[C@@]2(O)OC[C@]34[C@H]2[C@@]2(C)[C@H](O)C(=O)C=C(C)[C@@H]2C[C@H]3OC(=O)[C@H](O)[C@@]14O [EURYCOMANONE] | 0.04 µg/mL | 
3 | CC(=O)Oc1cc(C)c(OC(C)=O)c2c1[nH]c1ccccc12 | 1.79 µg/mL | 
4 | CC(C)=CCc1c(O)cc2oc3ccc4c(c3c(=O)c2c1O)C=CC(C)(C)O4 [CALOTHWAITESIXANTHONE] | 2.7 µg/mL | 
5 | COc1cc2c3c(c1O)Oc1ccc(cc1)C[C@@H]1c4c(cc(OC)c(O)c4Oc4ccc(cc4)C[C@H]3N(C)CC2)CCN1C [ISOCHONDODENDRINE] | 892 nM | 
6 | C=C(CO)[C@@]12O[C@@H]1[C@@]1(C)C(=CC2=O)CC[C@@H](O)[C@@H]1C |  | 0.32 µg/mL (≈ 1.21 µM)
7 | C=C1C(=O)[C@@]23CC[C@H]4[C@@]5(C)CCC[C@@]4(OC5=O)[C@@]2(C)CC[C@]1(OC)C3 | 0.54 µg/mL | 
8 | COc1cc2c(cc1OC)[C@H](Cc1ccc(Oc3c(O)c(OC)cc4c3C[C@@H]3c5c(c(O)c(OC)c(OC)c5-4)CCN3C)cc1)N(C)CC2 | 0.0102 µg/mL | 
9 | O=C1OC(O)C(Br)=C1Br (configuration not stated) [MUCOBROMIC ACID] | 0.359 µg/mL | 
10 | CC(=O)O[C@@H]1C(=O)c2c(O)cc(O)cc2O[C@@H]1c1ccc(O)cc1 | 24.3 µg/mL | 
11 | Cc1cc(O)c2c(c1)[C@@H]([C@H]1O[C@H](OC(=O)c3ccccc3)[C@@H](O)[C@@H](O)[C@@H]1O)c1cccc(O)c1C2=O | 2400 nM | 
12 | COC1=C(OC)C(=O)C([C@H]2COc3c(cc(OC)c(OC)c3OC)C2)=CC1=O [ABRUQUINONE B] | 1.5 µg/mL | 
13 | C/C1=C\[C@H]2O[C@](C)(CC[C@@H]2[C@@]2(C)CO2)[C@@H](O)CC/C(C)=C/CC1 | 15 µg/mL | 
14 | C[C@H]1[C@H](O)CCC2=CC(=O)[C@@]3([C@@]4(CO)CO4)O[C@@H]3[C@@]21C |  | 0.5 µg/mL (≈ 1.78 µM)
15 | CC1(C)C=Cc2c(ccc(C(=O)/C=C/c3ccc(O)cc3)c2O)O1 | 3360 nM | 
16 | O[C@H]1[C@H]2c3cc4c(cc3CN3CCC(=C[C@@H]1O)[C@H]23)OCO4 [LYCORINE] | 0.62 µg/mL | 
17 | CCCCCCCCCCCCCC1CC(=O)NCCCNCCCCNCCCN1 (configuration not stated) [BUDMUNCHIAMINE L4] | 14000 nM | 
18 | COc1c(O)cc2oc3cc(O)c(CC=C(C)C)c(O)c3c(=O)c2c1CC=C(C)C [MANGOSTIN] | 17000 nM | 
19 | C=C[C@@]12COC(=O)C(=C)[C@@H]1[C@H]1OC(=O)[C@@H](C)[C@@H]1[C@@H](OC(=O)C(=C)CO)C2 | 1.1 µg/mL | 
20 | COc1ccc2cc1Oc1cc3c(cc1OC)CCN(C)[C@@H]3Cc1ccc(cc1)Oc1c(O)c(OC)cc3c1[C@@H](C2)N(C)CC3 | 353 nM | 
21 | C=C1C(=O)O[C@@H]2/C=C(/CO)C3=CC(=O)[C@@](C)(C[C@@H](OC(=O)/C(C)=C\C)[C@@H]12)O3 | 0.3 µg/mL | 
22 | CC(O)c1cncc2c(=O)n3c(cc12)-c1[nH]c2ccc(O)cc2c1CC3 (configuration not stated) [NAUCLEOFFICINE E] | 38300 nM | 
23 | C=C1C(=O)[C@@]23CC[C@H]4[C@@]5(C)CCC[C@@]4(OC5=O)[C@@]2(C)CC[C@]1(O)C3 | 0.67 µg/mL | 
24 | C=CC(C)(C)c1cc2c(O)c3c(c(C(C)(C)C=C)c2oc1=O)OC(C)(C)C=C3 [CLAUSARIN] | 0.1 µg/mL | 
25 | CC1=CC(=O)[C@@H](O)[C@]2(C)[C@H]3[C@]4(O)OC[C@@]35[C@@H](C[C@@H]12)OC(=O)[C@H](O)[C@@]5(O)[C@H](C)[C@H]4O [PASAKBUMIN C] | 0.0933 µg/mL | 
26 | COc1cc2c3cc1Oc1c(OC)c(OC)cc4c1[C@H](Cc1ccc(OC)c(c1)-c1cc(ccc1O)C[C@H]3N(C)CC2)N(C)CC4 | 1140 nM | 
27 | COc1cc2c(cc1O)CCN(C)[C@H]2Cc1ccc(Oc2c(O)c(OC)cc3c2C[C@@H]2c4c(cc(OC)c(OC)c4-3)CCN2C)cc1 | 0.0112 µg/mL | 
